Assay [1] addresses EGFR (D746-750) (Homo sapiens, UniProt P00533, DEL746-750). The assay can be described thus: HotSpot radiometric kinase assay, inhibition of EGFR 746-750 mutant. Conditions: 33P ATP, room temperature, 120 m. The class given is biochemical. As for the experimental part:
(§1) Biochemical Assays for inhibition of wild-type and mutant EGFRs
(§2) Briefly, specific kinase/substrate pairs along with required cofactors were prepared in reaction buffer; 20 mM HEPES pH 7.5, 10 mM […], 1 mM EGTA, 0.02% Brij35, 0.02 mg/ml BSA, 0.1 mM Na3VO4, 2 mM DTT, 1% DMSO. Compounds were delivered into the reaction, followed ~20 minutes later by addition of a mixture of ATP (Sigma, St. Louis MO) and ^33P ATP (Perkin Elmer, Waltham MA) to a final concentration of […]. Reactions were carried out at room temperature for 120 m, followed by spotting of the reactions onto P81 ion exchange filter paper (Whatman Inc., Piscataway, NJ). Unbound phosphate was removed by extensive washing of filters in 0.75% phosphoric acid. […] IC50 values and curve fits were obtained using Prism (GraphPad Software).

In assay [2] the target is EGFR (D770_N771insNPG) (Homo sapiens, UniProt P00533, INS770NPG). Kind of assay: HotSpot radiometric kinase assay, inhibition of EGFR (D770_N771insNPG) mutant. In kind it is biochemical. Conditions: 33P ATP, room temperature, 120 m. As for the experimental part: as §1, §2
The target in assay [3] is EGFR (D746-750/C797S) (Homo sapiens, UniProt P00533, C797S/DEL746-750). The assay can be described thus: HotSpot radiometric kinase assay, inhibition of EGFR 746-750/C797S mutant. In kind it is biochemical. Conditions: 33P ATP, room temperature, 120 m. As for the experimental part:
as §1, §2

Assay [4] addresses EGFR (L858R/T790M/C797S) (Homo sapiens, UniProt P00533, C797S/L858R/T790M). Kind of assay: HotSpot radiometric kinase assay, inhibition of EGFR L858R/T790M/C797S mutant. Conditions: 33P ATP, room temperature, 120 m. In kind it is biochemical. As for the experimental part: as §1, §2
The target of assay [5] is T1, pEGFR, A431 cells (wildtype EGFR) (Homo sapiens, UniProt P00533).
T1 construct: pEGFR (Tyr1068) TR-FRET
The assay can be described thus: Cellular EGFR phosphorylation assay (LANCE Ultra TR-FRET) in A431 cells. Conditions: 4 hours at 37° C., 40 ng/mL EGF for the final 10 minutes, read-out: A431 pEGFR IC50. The class given is cell-based. As for the experimental part:
(§3) Cellular EGFR Phosphorylation Assays
(§4) EGFR phosphorylation assays were conducted in NSCLC cells with EGFR activation mutations. PC-9 cells (purchased from Aldrich-Sigma) carry a Glu746-Ala750 deletion (d746-750) mutation in exon 19 of the EGFR gene and NCI-H1975 cells (purchased from ATCC) carry both L858R activation mutation and T790M gatekeeper mutation in the EGFR gene. A431 cells (purchased from ATCC) with amplification of wildtype EGFR, derived from epidermoid carcinoma, were used to measure the activity against wildtype EGFR. All cells were seeded in 96-well plates. For PC-9 and NCI-H1975 cells, 50 thousand cells were seeded per well. For A431 cells, 30 thousand cells were seeded per well. The next day, cells were exposed to compound for 4 hours at 37° C. and 5% CO2. Compounds were diluted in DMSO and added to cells in a 9-dose, 3-fold dilution, titration curve using TECAN d300e liquid dispenser. For A431 cells, 40 ng/mL of EGF was added to the media for the final 10 minutes of incubation. EGFR phosphorylation was measured using phospho-EGFR (Try1068) LANCE Ultra TR-FRET Detection Kit (TRF4015M) from PerkinElmer according to manufacturer's instructions. In brief, cells were lysed with 40 μL of lysis buffer plus 1× Halt protease and phosphatase inhibitor cocktail (Thermo 78441) and by incubation at room temperature for 1 h on a microplate shaker (350 rpm). 15 μ L of cell lysate was transferred to 384-well white plate and 5 μL of Europium- and ULight-labeled antibodies diluted in 1× detection buffer was added to each well. After 4-6 hours of incubation at room temperature, plates were then read on a TECAN Sparks multimode microplate reader. Data was analyzed using GraphPad Prism 9 (GraphPad Software, San Diego, CA) to obtain IC50 values.
On the technique in general: In TR-FRET formats the signal depends on donor and acceptor labels being close together.

The test system of assay [6] is BaF3 cells with engineered EGFR L858R/T790M/C797S. Kind of assay: 3-Day CellTiter Glo (CTG) cell proliferation assay, BaF3 EGFR L858R/T790M/C797S. In kind it is cell-based. Conditions: Mus musculus, 3-day CTG proliferation, 72 hours. As for the experimental part: 3-DAY CellTiter Glo (CTG) Cell Proliferation Assays (BaF3 Cell Lines)
Cell proliferation assays were carried out in BaF3 cells engineered with EGFR mutations. BaF3 cells with engineered EGFR L858R/T790M/C797S, EGFR L858R/C797S, or EGFR d746-750/T790M transgene, one thousand cells/50 μL per well were seeded in white 384-well plate, followed by treatment with indicated compounds in a 9-dose dilution series using TECAN d300e liquid dispenser. Cells were incubated with compounds for 72 hours at 37° C. and 5% CO2. Cell proliferation was measured using CellTiter-Gbo 2.0 luciferase-based ATP detection assay (Promega, Madison, WI) at 18 μL per well following the manufacturer's protocol. Plates were then read on a TECAN Sparks multimode microplate reader. Data was analyzed using GraphPad Prism 9 (GraphiPad Software, San Diego, CA) to obtain IC50 values.
Background: Cellular ATP, detected with luciferase, serves as a proxy for viable cell number.

For assay [7], the system named is PC-9 cells. The assay can be described thus: 5-Day CellTiter Glo (CTG) cell proliferation assay, PC-9. In kind it is cell-based. Conditions: Homo sapiens, read-out: PC-9 IC50. As for the experimental part: (§5) 5-Day CellTiter Glo (CTG) Cell Proliferation Assays (PC9, H1975, H827)
(§6) Cell proliferation assays were carried out in NSCLC cells with EGFR activation mutations. Both PC-9 cells and HCC827 cells (purchased from DSMZ) carry a Glu746-Ala750 deletion (d746-750) mutation in exon 19 of the EGFR gene and NCI-H1975 cells carry both L858R activation mutation and T790M gatekeeper mutation in the EGFR gene. One thousand PC-9, NCI-H1975 or HCC827 cells/100 μL per well were seeded in 96-well black plate with transparent bottom and then treated with indicated compounds in a 9-dose dilution series dispensed using TECAN d300e liquid dispenser. Cells were incubated with compounds for 120 hours at 37° C. and 5% CO2. Cell proliferation was measured using CellTiter-Glo 2.0 luciferase-based ATP detection assay (Promega, Madison, WI) at […] per well following the manufacturer's protocol. Plates were then read on a TECAN Sparks multimode microplate reader. Data was analyzed using GraphPad Prism 9 (GraphPad Software, San Diego, CA) to obtain IC50 values.

Assay [8] addresses T2, pEGFR, PC-9 cells (d746-750 EGFR) (Homo sapiens, UniProt P00533, DEL746-750).
T2 construct: pEGFR (Tyr1068) TR-FRET
Kind of assay: Cellular EGFR phosphorylation assay (LANCE Ultra TR-FRET) in PC-9 cells. In kind it is cell-based. Conditions: 4 hours at 37° C., read-out: PC-9 pEGFR IC50. As for the experimental part: as §3, §4

The subject of assay [9] is HCC827 cells. Kind of assay: 5-Day CellTiter Glo (CTG) cell proliferation assay, HCC827. The class given is cell-based. Conditions: Homo sapiens, read-out: HCC827 IC50. As for the experimental part: as §5, §6
The test system of assay [10] is NCI-H1975 cells. Kind of assay: 5-Day CellTiter Glo (CTG) cell proliferation assay, NCI-H1975. In kind it is cell-based. Conditions: Homo sapiens, read-out: H1975 IC50. As for the experimental part: as §5, §6
Assay [11] concerns the target T3, pEGFR, NCI-H1975 cells (L858R/T790M EGFR) (Homo sapiens, UniProt P00533, L858R/T790M).
T3 construct: pEGFR (Tyr1068) TR-FRET
Kind of assay: Cellular EGFR phosphorylation assay (LANCE Ultra TR-FRET) in NCI-H1975 cells. In kind it is cell-based. Conditions: 4 hours at 37° C., read-out: H1975 pEGFR IC50. As for the experimental part: as §3, §4

Setting [12] is: PC-9 cells (d746-750 EGFR), 5-day CTG proliferation, 120 hours.
The mark [13] stands for this setting: HCC827 cells (d746-750 EGFR), 5-day CTG proliferation, 120 hours.
The mark [14] stands for this setting: NCI-H1975 cells (L858R/T790M EGFR), 5-day CTG proliferation, 120 hours.

Read-outs that look alike come from different tables or passages of the source.

T2 sequence (P00533 with tags, fused parts or gaps DEL746-750): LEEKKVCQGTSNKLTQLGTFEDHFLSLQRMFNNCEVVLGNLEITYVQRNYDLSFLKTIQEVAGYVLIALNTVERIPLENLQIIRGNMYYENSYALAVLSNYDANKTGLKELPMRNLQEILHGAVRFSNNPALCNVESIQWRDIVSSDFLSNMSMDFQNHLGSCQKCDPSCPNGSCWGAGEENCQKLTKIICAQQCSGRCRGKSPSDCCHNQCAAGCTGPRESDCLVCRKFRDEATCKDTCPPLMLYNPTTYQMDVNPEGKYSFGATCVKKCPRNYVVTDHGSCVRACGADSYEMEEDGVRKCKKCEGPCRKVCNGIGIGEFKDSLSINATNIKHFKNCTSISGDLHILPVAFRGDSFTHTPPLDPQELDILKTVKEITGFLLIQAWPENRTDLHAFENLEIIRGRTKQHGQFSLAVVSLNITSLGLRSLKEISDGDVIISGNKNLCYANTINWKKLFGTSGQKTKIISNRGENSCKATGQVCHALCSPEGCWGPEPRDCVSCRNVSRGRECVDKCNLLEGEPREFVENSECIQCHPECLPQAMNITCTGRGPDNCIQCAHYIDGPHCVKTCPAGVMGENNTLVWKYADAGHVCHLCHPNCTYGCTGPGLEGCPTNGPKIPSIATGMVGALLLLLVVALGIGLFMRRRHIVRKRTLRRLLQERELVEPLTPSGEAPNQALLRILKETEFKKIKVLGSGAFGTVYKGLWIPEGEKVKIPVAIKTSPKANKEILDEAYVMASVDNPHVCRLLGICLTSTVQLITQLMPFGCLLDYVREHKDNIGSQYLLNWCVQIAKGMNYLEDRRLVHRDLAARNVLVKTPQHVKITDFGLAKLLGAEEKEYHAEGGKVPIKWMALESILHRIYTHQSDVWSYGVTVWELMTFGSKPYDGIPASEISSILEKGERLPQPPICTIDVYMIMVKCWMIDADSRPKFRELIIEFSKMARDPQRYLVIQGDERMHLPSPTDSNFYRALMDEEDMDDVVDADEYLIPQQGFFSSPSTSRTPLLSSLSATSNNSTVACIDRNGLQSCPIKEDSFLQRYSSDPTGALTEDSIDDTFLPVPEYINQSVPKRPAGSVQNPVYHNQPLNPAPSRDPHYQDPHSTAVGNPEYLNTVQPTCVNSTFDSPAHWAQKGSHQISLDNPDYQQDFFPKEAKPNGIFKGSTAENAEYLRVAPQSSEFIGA
T1 sequence (P00533 25-1210): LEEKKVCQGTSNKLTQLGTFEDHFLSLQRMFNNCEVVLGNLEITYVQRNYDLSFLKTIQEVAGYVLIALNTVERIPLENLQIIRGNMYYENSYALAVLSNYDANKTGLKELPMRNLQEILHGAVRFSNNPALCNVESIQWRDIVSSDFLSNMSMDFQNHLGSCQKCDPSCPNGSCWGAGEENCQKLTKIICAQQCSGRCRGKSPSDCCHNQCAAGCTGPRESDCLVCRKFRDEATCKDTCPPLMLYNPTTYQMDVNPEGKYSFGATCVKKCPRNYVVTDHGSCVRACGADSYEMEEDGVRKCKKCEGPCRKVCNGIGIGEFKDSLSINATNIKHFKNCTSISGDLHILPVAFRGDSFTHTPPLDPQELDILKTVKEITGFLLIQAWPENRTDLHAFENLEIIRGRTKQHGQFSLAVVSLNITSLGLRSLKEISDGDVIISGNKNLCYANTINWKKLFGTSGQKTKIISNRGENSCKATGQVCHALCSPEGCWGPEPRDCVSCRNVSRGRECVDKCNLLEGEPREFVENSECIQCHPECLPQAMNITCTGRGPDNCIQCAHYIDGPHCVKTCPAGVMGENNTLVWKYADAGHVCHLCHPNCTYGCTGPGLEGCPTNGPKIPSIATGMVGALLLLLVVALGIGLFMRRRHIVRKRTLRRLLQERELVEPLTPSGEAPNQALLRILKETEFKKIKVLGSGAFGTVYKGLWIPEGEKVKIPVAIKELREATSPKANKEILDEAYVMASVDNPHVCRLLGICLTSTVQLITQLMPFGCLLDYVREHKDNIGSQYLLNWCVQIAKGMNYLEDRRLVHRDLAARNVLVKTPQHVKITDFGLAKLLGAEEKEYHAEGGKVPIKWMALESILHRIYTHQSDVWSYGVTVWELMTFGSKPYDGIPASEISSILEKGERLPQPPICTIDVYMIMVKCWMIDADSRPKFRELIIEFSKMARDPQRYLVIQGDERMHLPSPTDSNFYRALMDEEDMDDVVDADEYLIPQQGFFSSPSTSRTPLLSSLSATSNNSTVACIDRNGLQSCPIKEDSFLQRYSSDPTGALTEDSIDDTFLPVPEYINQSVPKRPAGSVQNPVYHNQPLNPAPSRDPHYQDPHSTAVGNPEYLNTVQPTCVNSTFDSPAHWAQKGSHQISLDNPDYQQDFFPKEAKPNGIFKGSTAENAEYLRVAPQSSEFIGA
T3 sequence (P00533 25-1210 T790M/L858R): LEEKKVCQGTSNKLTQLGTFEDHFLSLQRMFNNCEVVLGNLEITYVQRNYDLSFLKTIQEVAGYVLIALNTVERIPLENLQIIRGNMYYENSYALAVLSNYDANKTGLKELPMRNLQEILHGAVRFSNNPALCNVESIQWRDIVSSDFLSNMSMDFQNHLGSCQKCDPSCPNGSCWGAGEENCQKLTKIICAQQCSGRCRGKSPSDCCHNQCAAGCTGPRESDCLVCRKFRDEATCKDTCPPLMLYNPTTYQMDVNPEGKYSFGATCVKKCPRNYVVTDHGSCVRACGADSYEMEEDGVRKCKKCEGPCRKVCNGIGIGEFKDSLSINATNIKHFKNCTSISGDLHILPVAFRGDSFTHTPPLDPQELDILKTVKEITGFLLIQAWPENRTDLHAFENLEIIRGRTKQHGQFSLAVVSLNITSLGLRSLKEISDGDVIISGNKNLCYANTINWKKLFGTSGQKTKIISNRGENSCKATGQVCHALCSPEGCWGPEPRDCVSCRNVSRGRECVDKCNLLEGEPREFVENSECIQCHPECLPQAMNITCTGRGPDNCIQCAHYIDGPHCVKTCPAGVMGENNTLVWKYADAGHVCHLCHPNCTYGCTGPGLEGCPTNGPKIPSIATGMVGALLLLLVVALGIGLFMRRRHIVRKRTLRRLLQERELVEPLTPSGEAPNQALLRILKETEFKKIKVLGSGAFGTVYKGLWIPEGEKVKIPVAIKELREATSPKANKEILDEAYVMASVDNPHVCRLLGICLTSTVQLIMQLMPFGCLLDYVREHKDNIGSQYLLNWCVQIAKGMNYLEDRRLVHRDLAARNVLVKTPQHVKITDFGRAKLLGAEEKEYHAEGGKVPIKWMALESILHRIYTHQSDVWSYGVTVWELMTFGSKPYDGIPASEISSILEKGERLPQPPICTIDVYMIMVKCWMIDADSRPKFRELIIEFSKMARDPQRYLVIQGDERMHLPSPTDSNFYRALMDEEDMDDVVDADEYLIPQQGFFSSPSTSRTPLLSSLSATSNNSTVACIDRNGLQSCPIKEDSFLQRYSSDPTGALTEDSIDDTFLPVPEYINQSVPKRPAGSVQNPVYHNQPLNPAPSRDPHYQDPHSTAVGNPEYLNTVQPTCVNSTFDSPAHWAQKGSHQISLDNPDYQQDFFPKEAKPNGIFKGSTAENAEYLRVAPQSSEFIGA
Sequence of EGFR (D770_N771insNPG) (P00533 with tags, fused parts or gaps INS770NPG limits assumed): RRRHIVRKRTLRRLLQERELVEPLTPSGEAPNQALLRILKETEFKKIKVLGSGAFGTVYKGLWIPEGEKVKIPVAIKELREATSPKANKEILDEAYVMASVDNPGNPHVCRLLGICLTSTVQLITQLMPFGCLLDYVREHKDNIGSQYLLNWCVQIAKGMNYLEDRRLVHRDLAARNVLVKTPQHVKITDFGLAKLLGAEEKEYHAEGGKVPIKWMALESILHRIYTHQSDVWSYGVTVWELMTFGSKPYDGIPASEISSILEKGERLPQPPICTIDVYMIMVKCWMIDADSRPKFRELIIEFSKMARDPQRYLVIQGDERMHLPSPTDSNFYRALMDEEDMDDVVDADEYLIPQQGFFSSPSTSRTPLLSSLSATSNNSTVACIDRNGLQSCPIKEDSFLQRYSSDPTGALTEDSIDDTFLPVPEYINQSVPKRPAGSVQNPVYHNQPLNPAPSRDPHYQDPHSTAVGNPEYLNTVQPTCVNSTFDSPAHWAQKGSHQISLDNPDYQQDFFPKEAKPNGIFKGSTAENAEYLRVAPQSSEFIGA

Regarding `CCOc1nn(CCO)c2c1/C=C/c1n[nH]c3c(C)nc(cc13)-c1cnn(C)c1O[C@H](C)CN(CC)C2` [Ex. 37, 2-[(10R,17E)-16-ethoxy-12-ethyl-8,10,20-trimethyl-2,8,10,11,12,13-hexahydro-14H-5,3-(azenometheno)tripyrazolo[3,4-f:3′,4′-j:4″,3″-n][1,4]oxazacyclopentadecin-14-yl]ethan-1-ol], the IC50 – broadly, the concentration that inhibits the measured activity by half – in [1] is 0.31 nM; in [2] it was 1.62 nM; in assay [3] it was 0.79 nM; in assay [4], 0.71 nM.
On to `Cc1c2c(nn1C)CN(C)CCOc1c(cnn1C)-c1cc3c(n[nH]c3cn1)/C=C/2` [Ex. 73, (17E)-8,12,15,16-tetramethyl-2,10,11,12,13,15-hexahydro-8H-5,3-(azenometheno)tripyrazolo[3,4-f:3′,4′-j:4″,3″-n][1,4]oxazacyclopentadecine], for which the IC50 in [5] was 564 nM; in assay [6], 35.8 nM; in [7] (setting [12]), 23.7 nM; in assay [8], 72.6 nM; in [9] (setting [13]), 0.24 nM; in [10] (setting [14]), 5.53 nM.
Turning to `[2H]C([2H])([2H])C([2H])([2H])Oc1nn([C@@H](C)CO)c2c1/C=C/c1n[nH]c3cnc(cc13)-c1c(C)nn(C)c1O[C@@H](C)CN(C)C2` [Ex. 87, (2S)-2-[(10S,17E)-16-[(^2H5)ethyloxy]-6,8,10,12-tetramethyl-2,8,10,11,12,13-hexahydro-14H-5,3-(azenometheno)tripyrazolo[3,4-f:3′,4′-j:4″,3″-n][1,4]oxazacyclopentadecin-14-yl]propan-1-ol], the IC50 was 5.88 nM in assay [5]; 0.36 nM in assay [7] (PC-9, 120 h); 0.97 nM in assay [8]; 0.23 nM in [9] (HCC827, 120 h); 1.82 nM in [11]; 0.57 nM in [10] (NCI-H1975, 120 h).
Consider `COCc1nn(C)c2c1-c1cc3c(n[nH]c3c(C)n1)/C=C/c1cnn(C)c1CN(C(=O)CCN(C)C)C[C@H](C)O2` [Ex. 143, 3-(dimethylamino)-1-[(10S,17E)-6-(methoxymethyl)-8,10,14,20-tetramethyl-2,8,10,11,13,14-hexahydro-12H-5,3-(azenometheno)tripyrazolo[3,4-f:3′,4′-j:4″,3″-n][1,4]oxazacyclopentadecin-12-yl]propan-1-one], for which the IC50 in [7] (setting [12]) is 21.6 nM; in assay [9] (setting [13]), 9.09 nM; in assay [10] (setting [14]) it was 519 nM.
Turning to `CCOc1nn([C@@H](C)CO)c2c1/C=C/c1n[nH]c3c(C)nc(cc13)-c1c(C)nn(C)c1O[C@@H](C)CN(CC)C2` [Ex. 145, (2S)-2-[(10S,17E)-16-ethoxy-12-ethyl-6,8,10,20-tetramethyl-2,8,10,11,12,13-hexahydro-14H-5,3-(azenometheno)tripyrazolo[3,4-f:3′,4′-j:4″,3″-n][1,4]oxazacyclopentadecin-14-yl]propan-1-ol], the IC50 worked out at 0.37 nM in assay [7] (setting [12]), 0.24 nM in [9] (setting [13]) and 0.58 nM in assay [10] (setting [14]).
As to `CCOc1nn([C@@H](C)CO)c2c1/C=C/c1n[nH]c3c(C)nc(cc13)-c1c(COC)nn(C)c1O[C@@H](C)CN(CC)C2` [Ex. 147, (2S)-2-[(10S,17E)-16-ethoxy-12-ethyl-6-(methoxymethyl)-8,10,20-trimethyl-2,8,10,11,12,13-hexahydro-14H-5,3-(azenometheno)tripyrazolo[3,4-f:3′,4′-j:4″,3″-n][1,4]oxazacyclopentadecin-14-yl]propan-1-ol], the 50% inhibitory concentration (IC50) in assay [5] was 11.3 nM; in [7] (setting [12]) it was 0.59 nM; in assay [9] (setting [13]), 0.34 nM; in [10] (setting [14]), 20.4 nM.
With `CCN1Cc2c(c(OCC#N)nn2[C@@H](C)CO)/C=C/c2n[nH]c3c(C)nc(cc23)-c2c(C)nn(C)c2O[C@@H](C)C1` [Ex. 148, {[(10S,17E)-12-ethyl-14-[(2S)-1-hydroxypropan-2-yl]-6,8,10,20-tetramethyl-2,10,11,12,13,14-hexahydro-8H-5,3-(azenometheno)tripyrazolo[3,4-f:3′,4′-j:4″,3″-n][1,4]oxazacyclopentadecin-16-yl]oxy}acetonitrile], the IC50 in assay [5] came out at 40.5 nM; in assay [7] (setting [12]), 0.76 nM; in assay [8], 1.94 nM; in assay [9] (setting [13]), 0.29 nM; in [11], 2.9 nM; in [10] (setting [14]), 1.76 nM.
Take `Cc1nn(C)c2c1-c1cc3c(n[nH]c3c(C)n1)/C=C/c1c(OCC#N)nn([C@@H](C)CO)c1CN(CC(F)F)C[C@H](C)O2` [Ex. 151, {[(10S,17E)-12-(2,2-difluoroethyl)-14-[(2S)-1-hydroxypropan-2-yl]-6,8,10,20-tetramethyl-2,10,11,12,13,14-hexahydro-8H-5,3-(azenometheno)tripyrazolo[3,4-f:3′,4′-j:4″,3″-n][1,4]oxazacyclopentadecin-16-yl]oxy}acetonitrile]: the IC50 in [5] came to 26.6 nM; in [7] (setting [12]) it was 1.55 nM; in assay [8] it was 2.04 nM; in assay [9] (setting [13]) it was 0.42 nM; in assay [11], 3.24 nM; in assay [10] (setting [14]), 4.89 nM.

The values are drawn from patent publication US20260317344A1, “EGFR INHIBITORS FOR TREATING DISEASE” (BLOSSOMHILL THERAPEUTICS, INC., priority 2023, published 2026).
